# Patent US12612395B2, “Rocaglate derivatives and uses thereof” (TRUSTEES OF BOSTON UNIVERSITY, priority 2023, dated 2026)
# Like-named read-outs stand apart in the source and are kept apart here.
# Tests used:
# [1] = tested on: GBM0308 neurospheres; test: Neurosphere formation assay (single neurosphere, PI/Hoechst); format: cell-based; conditions: 72 hours
# Description: To gain additional mechanistic insights into GBM cell death induced by (−)-20, the inventors conducted several functional assays. The inventors first derived a single neurosphere from GBM0308 cells cultured in stem cell conditions, which was treated with either DMSO or (−)-20 at varying doses for three days followed by staining with PI and Hoechst dyes and subsequent imaging. […] To capture the kinetics of apoptotic events, the inventors employed caspase 3/7 staining of GBM0308 neurospheres treated with either DMSO or (−)-20 and subsequently evaluated at three timepoints over a 48-hour period. […] (FIG. 5B).
# Neurosphere Formation Assays: Single neurospheres were generated by seeding GBM0308 cells (400 cells per well) in a 384-well ultra-low attachment round bottom microplate (Nexcelom Bioscience, ULA-384 U). The plates were then centrifuged at 300×g for 10 minutes to cluster cells at the bottom of the wells, followed by incubation at 37° C. and 5% CO2 for 4 days to allow the formation of single neurospheres and treated with either DMSO or drugs at concentrations of 3.3, 1.11, 0.37, 0.12, 0.041, 0.013, 0.004 μM. On Day 7, neurospheres were stained with propidium iodide and Hoechst, as described above. The “neurosphere 1+Mask” application was used to measure the fluorescent intensities of PI, using Celigo cytometer as described previously.^70
# [2] = tested on: eIF4A paralogs (eIF4A1); test: PISA assay in GBM0308 cell lysates, eIF4A; format: binding, human; conditions: GBM0308 lysate, compound 10 μM, AMP-PNP and (AG)8 RNA added
# Source text: (§1) Derivatization-free target identification using a modified proteome integral solubility alteration (PISA) assay. The inventors next pursued proteome-wide target identification to better understand the target profiles of CSC-selective rocaglates. To enable cross-compound comparisons of target engagement, the inventors opted to use the Proteome Integral Solubility Alteration (PISA) assay,^29 a derivative of the mass spectrometry-based Cellular Thermal Shift Assay (MS-CETSA). In MS-CETSA,^30,31 target engagement is inferred through proteome-wide analysis of compound-induced changes to protein thermal stability; proteins with a shift in their half-maximal thermal denaturation temperature upon compound treatment are flagged as potential targets. The PISA assay obviates the need for MS-CETSA-derived thermal denaturation curves through curve integration by pooling of individual temperature points into a single “integral” sample for each treatment condition, thereby increasing throughput (FIG. 9). In contrast to MS-CETSA (which relies on curve comparisons), PISA determinations are performed by simply comparing soluble protein abundance levels between compound- and DMSO-treated samples. Importantly, protein fold-change measurements in PISA experiments generally scale with the thermal shift derived from CETSA experiments, and the magnitude of a thermal shift can inform on relative affinity between compounds and individual targets.^30,32-25 Maximal stability changes are protein-specific,^36 however, precluding estimations of preference for one target over another. Thus, PISA allows for simultaneous target profiling and comparisons of binding affinity between different compounds within a given target.
# (§2) Of note, we also detected stabilization of DDX3Y, a paralog which shares >90% sequence similarity with DDX3X.
# PISA assay in GBM0308 cell lysates: The PISA assay was performed in lysates as described by Gaetani and coworkers^S2 with slight modification. Pelleted GBM0308 cells were resuspended in ice-cold lysis buffer (1×PBS pH 7.4, 2 mM MgCl2, 0.5 mM AMP-PNP, 1 μM (AG)8 RNA, HALT protease inhibitor cocktail EDTA-free) and subjected to three freeze-thaw cycles with liquid nitrogen to extract lysate proteins. Thawing was performed at room temperature until ˜80% thawed, then completed on ice. Lysate was clarified by centrifugation for 10 minutes at 20,000 RCF and 4° C., transferred to a fresh Eppendorf tube, then centrifuged again for 10 minutes at 20,000 RCF and 4° C. to ensure removal of debris. Lysate concentration was determined using a Pierce BCA Protein Assay Kit and adjusted to 2.0 mg/mL in lysis buffer. Lysate was mixed 1:1 with a 2× solution of test compound or DMSO in lysis buffer, gently aspirated to ensure proper mixing, and incubated at room temperature for 10 minutes. […]
# [3] = tested on: GBM0308 CSCs; test: Dose-response killing of GBM CSCs (PI/Hoechst, Celigo cytometer); format: cell-based; conditions: for CSCs Max. observed efficacy (% dead cells): up to 10 μM
# Source text: (§3) The inventors first evaluated a cohort of seven rocaglate translation inhibitors (1, 3-7, and 9, FIG. 1A and Table 1, compounds 2 and 8 were not tested due to unavailability). To assay for compounds that selectively affect GBM CSCs, the inventors employed the patient-derived tumor-initiating cell (TIC) cell line […] that forms neurospheres (consisting exclusively of tumor-initiating cells or CSCs) when cultured in neurobasal (NBE) medium. Upon exposure to serum and growth factor withdrawal, however, the cell line differentiates, acquires a flattened morphology, and forms a non-CSC population.^20 Thus, compounds can be tested in parallel to assess their effect on GBM CSCs vs. GBM non-CSCs as separate populations with a clean and robust response. This approach has been previously used to perform RNAi-based genetic screens to identify modulators of CSCs.^20 In this study, GBM0308 cells, cultured in stem cell conditions to form CSCs or in medium containing serum to induce differentiation into a non-CSC population, were treated in parallel with compounds at varying doses. Three days post-treatment, propidium iodide (PI) and Hoechst staining were performed and quantified using a Celigo image cytometer. Hoechst dye stained all […] nucleated cells, while PI exclusively stained dead cells. Cell viability and the percentage of cell death were then determined.
# (§4) Cell Culture: Glioblastoma stem cell lines GBM0308, BT145, and BT112 were cultured in neurobasal (NBE medium) containing N-2 and B-27 supplements, EGF, bFGF, L-glutamine, and Penicillin-Streptomycin), as described previously.^19 Adherent GBM cells were cultured in serum-containing DMEM media (Invitrogen) supplemented with 10% fetal bovine serum (Corning Cellgro™). Cells were incubated at 37° C. and 5% CO2 to allow neurosphere formation. For seeding and subculturing, the neurospheres were gently trypsinized with 0.025% trypsin to form a single-cell suspension.
# (§5) Dose-Response Testing in GBM Cells: Briefly, on day 1, cells were seeded in triplicate. For CSCs, 1500 cells/well were plated in a low attachment 96-well plate with NBE media and incubated for 3 days at 37° C. and 5% CO2 to allow the formation of neurospheres. For non-CSCs, 3000 cells/well were plated in a 96-well plate with DMEM media supplemented with 10% FBS. Similarly, the assay plates were also incubated for the same duration. Compound treatments started on day 4. Each compound was resuspended in DMSO and then diluted to different concentrations in media to a final concentration of DMSO less than 1%. The compounds were added at concentrations of 10, 3.3, 1.11, 0.37, 0.12, 0.041, 0.013, and 0.004 µM, respectively. DMSO-treated cells served as a control. After 72 h incubation with the compounds, fluorescent stains, propidium iodide, and Hoechst 33342 (Life Technologies, Carlsbad, CA), were used to stain the GBM cells to determine cell viability. A staining solution in 1×PBS was prepared by mixing PI and Hoechst 33342 to working concentrations of 2.5 μM and 20 μM, respectively. 20 μL of this staining solution was added per well, and plates were incubated at 37° C. and 5% CO2 for 60 min. After incubation, plates were read by Celigo imaging cytometer using an inbuilt Celigo application; Cell Viability (Dead+Total). For the viability measurement, the total number of neurospheres/cells and dead neurospheres/cells in each well were counted by the cytometer. The percentage of PI+ cells was normalized to DMSO and plotted against the drug concentration to calculate the EC50 with a four-parameter, variable-slope dose-response curve with an upper constraint of <100% dead cells and a lower constraint of =0% dead cells (GraphPad Prism v.10.0.0). For all dose response experiments, the experimental maximal efficacy (maximum observed % cell death) is reported. Relative EC50 values are reported for all compounds killing >50% of cells.
# [4] = target: T1, DDX3X (Homo sapiens, UniProt O00571); test: PISA assay in GBM0308 cell lysates, DDX3X; format: binding; conditions: GBM0308 lysate, compound 10 μM, AMP-PNP and (AG)8 RNA added
# T1 construct: endogenous in cells; host or cells: GBM0308 glioblastoma stem cells (lysate)
# Source text: as §1, §2
# PISA assay in GBM0308 cell lysates: The PISA assay was performed in lysates as described by Gaetani and coworkers^S2 with slight modification. […] Lysate concentration was determined using a Pierce BCA Protein Assay Kit and adjusted to 2.0 mg/mL in lysis buffer. […]
# [5] = tested on: GBM0308 non-CSCs; test: Dose-response killing of GBM non-CSCs (PI/Hoechst, Celigo cytometer); format: cell-based; conditions: for Non-CSCs Max. observed efficacy (% dead cells): Table 1, up to 10 μM; for Non-CSCs Max. observed efficacy (% dead cells) / Emax: 72 h
# Source text: as §3, §4, §5
# [6] = Table 1, GBM0308 CSCs, 72 h treatment, relative EC50, given for compounds causing at least 50% cell death, read-out: CSCs EC50
# [7] = Homo sapiens, 72 h, read-out: CSC Max. observed efficacy (% dead cells), Table 7, cell line not given
# [8] = Homo sapiens, read-out: CSC EC50 (μM), Table 7, cell line not given
# [9] = Homo sapiens, read-out: Non-CSC Max. observed efficacy (% dead cells), Table 7, cell line not given
# T1 sequence (O00571 whole entry): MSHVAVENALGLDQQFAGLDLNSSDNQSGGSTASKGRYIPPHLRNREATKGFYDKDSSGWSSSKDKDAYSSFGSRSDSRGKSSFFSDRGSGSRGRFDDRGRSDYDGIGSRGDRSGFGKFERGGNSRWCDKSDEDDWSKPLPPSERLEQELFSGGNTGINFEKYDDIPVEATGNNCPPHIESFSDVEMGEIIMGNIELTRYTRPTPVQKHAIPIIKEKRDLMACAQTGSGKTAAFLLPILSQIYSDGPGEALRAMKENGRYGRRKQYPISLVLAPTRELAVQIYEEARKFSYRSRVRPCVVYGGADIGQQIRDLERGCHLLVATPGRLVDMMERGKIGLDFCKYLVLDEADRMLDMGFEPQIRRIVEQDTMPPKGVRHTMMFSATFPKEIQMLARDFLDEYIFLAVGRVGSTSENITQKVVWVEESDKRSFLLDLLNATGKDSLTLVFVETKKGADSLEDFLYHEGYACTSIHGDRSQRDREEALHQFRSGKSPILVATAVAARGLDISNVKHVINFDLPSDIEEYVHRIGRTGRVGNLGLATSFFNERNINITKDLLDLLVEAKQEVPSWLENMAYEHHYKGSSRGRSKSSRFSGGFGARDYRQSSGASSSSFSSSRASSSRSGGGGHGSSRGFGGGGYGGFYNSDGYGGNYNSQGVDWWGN
Compound,"CSCs Max. observed efficacy (% dead cells) ([3]; Table 1, GBM0308 CSCs, 72 h) [%]","EC50 [3, 6] [µM]",Non-CSCs Max. observed efficacy (% dead cells) ([5]; GBM0308 non-CSCs) [%],"Emax [3, 7] [%]","EC50 [3, 8] [µM]","Emax [5, 9] [%]",further results
RK-33 [reference compound],–,–,–,–,–,–,concentration required to observe a noticeable effect on neurosphere size [1]: > 3 µM
"rocaglamide A [(−)-1, reference compound]",84,0.387,31,–,–,–,"thermal stabilization of eIF4A paralogs (PISA), in words [2]: thermal stabilization; thermal stabilization of DDX3X (PISA), in words [4]: thermal stabilization"
"methyl rocaglate [(−)-3, reference compound]",75,1.64,23,–,–,–,–
"COc1cc(OC)c2c(c1)O[C@@]1(c3ccc(Br)cc3)[C@H](c3ccccc3)[C@@H](C(=O)NS(C)(=O)=O)[C@@H](O)[C@@]21O [(−)-19, (1R,2R,3S,3aR,8bS)-3a-(4-bromophenyl)-1,8b-dihydroxy-6,8-dimethoxy-N-(methylsulfonyl)-3-phenyl-2,3,3a,8b-tetrahydro-1H-cyclopenta[b]benzofuran-2-carboxamide]",–,–,–,–,–,–,"EC50 ([3]; Homo sapiens, 72 h, read-out: CSCs EC50 (μM), Table 2, GBM0308 CSCs, 72 h treatment, relative EC50): 0.095 µM; Emax ([3]; Homo sapiens, 72 h, read-out: CSCs Max. observed efficacy (% dead cells), Table 2, GBM0308 CSCs, 72 h, highest tested concentration 10 μM): 92%; EC50 ([3]; Homo sapiens, read-out: CSC EC50, text, GBM0308 CSCs): < 0.125 µM; Emax ([5]; Homo sapiens, read-out: Non-CSCs Max. observed efficacy (% dead cells), Table 2, GBM0308 non-CSCs, highest tested concentration 10 μM): 20%"
"COC(=O)[C@H]1[C@@H](O)[C@@]2(O)c3c(OC)cc(OC)cc3O[C@@]2(c2ccc(Br)cc2)[C@@H]1c1ccccc1 [(−)-9, reference compound]",88,0.151,25,–,–,–,–
"COc1cc(OC)c2c(c1)O[C@@]1(c3ccc(Br)cc3)[C@H](c3ccccc3)[C@@H](C(=O)NS(=O)(=O)N(C)C(C)C)[C@@H](O)[C@@]21O [ZW-12-34, (1R,2R,3S,3aR,8bS)-3a-(4-bromophenyl)-1,8b-dihydroxy-N—(N-isopropyl-N-methylsulfamoyl)-6,8-dimethoxy-3-phenyl-2,3,3a,8b-tetrahydro-1H-cyclopenta[b]benzofuran-2-carboxamide]",–,–,–,79,1.85,18,–
"COc1cc(OC)c2c(c1)O[C@@]1(c3ccc(C(F)(F)F)cc3)[C@H](c3ccccc3)[C@@H](C(=O)NS(=O)(=O)N(C)C)[C@@H](O)[C@@]21O [ZW-12-29, (1R,2R,3S,3aR,8bS)—N—(N,N-dimethylsulfamoyl)-1,8b-dihydroxy-6,8-dimethoxy-3-phenyl-3a-(4-(trifluoromethyl)phenyl)-2,3,3a,8b-tetrahydro-1H-cyclopenta[b]benzofuran-2-carboxamide]",–,–,–,57,5.63,26,–
"COc1cc(OC)c2c(c1)O[C@@]1(c3ccc(Br)cc3)[C@H](c3ccccc3)[C@@H](C(=O)NS(=O)(=O)N3CCOCC3)[C@@H](O)[C@@]21O [ZW-12-38, (1R,2R,3S,3aR,8bS)-3a-(4-bromophenyl)-1,8b-dihydroxy-6,8-dimethoxy-N-(morpholinosulfonyl)-3-phenyl-2,3,3a,8b-tetrahydro-1H-cyclopenta[b]benzofuran-2-carboxamide]",–,–,–,95,0.7,19,"EC50 ([5]; Homo sapiens, read-out: Non-CSC EC50 (μM)): 0.463 µM"
